This note sets out measurements from ChEMBL document CHEMBL1201862, “PubChem BioAssay data set” (2004).

Some test systems named below: HOP-92; ACHN; KM12; SK-MEL-5; NCI-H460; HCT-15; SF-295; RPMI-8226; HCT-116; A498; IGROV-1; CCRF-CEM; COLO 205; OVCAR-3; SF-268; HL-60; TK-10; PC-3; MDA-MB-435.
Holding throughout (test): inhibition of tumour cell growth, NCI panel, 48 h

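48-hour exposure; five concentrations; linearly interpolated endpoints. GI50 is the concentration that inhibits growth by half.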 Calls of active or inactive are those of the source. No stated cut-off is given here; in the data, active = GI50 up to about 1.1 µM and inactive = higher.

For `C[C@]12CC[C@H](OC(=O)Nc3ccccc3)CC1=CC[C@@H]1C2CC[C@]2(C)/C(=N/OC(=O)Nc3ccccc3)CCC12` (stereo partly specified), the GI50 was 20.1 µM (inactive) in the assay with HOP-92; 7.14 µM (inactive) with ACHN; 8.15 µM (inactive) with KM12; 5.35 µM (inactive) with SK-MEL-5; 25.6 µM (inactive) with NCI-H460; 1.77 µM with HCT-15. Also, the GI50 was 10 µM (inactive) with SF-295; 5.57 µM (inactive) with RPMI-8226; 4.18 µM (inactive) in the assay with HCT-116; > 100 µM (inactive) with A498; 4.19 µM (inactive) with IGROV-1; 2.83 µM (inactive) with CCRF-CEM. Further, the GI50 is 4.49 µM (inactive) in the assay on COLO 205; > 100 µM (inactive) in the assay on OVCAR-3; 7.94 µM (inactive) in the assay on SF-268; 5.82 µM (inactive) in the assay on HL-60; 6.61 µM (inactive) with TK-10.

With `Cc1nc(-n2nc(-c3ccccc3)cc2-c2ccccc2)sc1C(/C=C/c1ccc([N+](=O)[O-])cc1)=N/NC(=O)c1ccncc1`, the GI50 with HOP-92 is 11.5 µM (inactive); in the assay with ACHN, 23.6 µM (inactive); with KM12, 4.06 µM (inactive); in the assay with SK-MEL-5, 18.1 µM (inactive); in the assay with NCI-H460, 40 µM (inactive); in the assay on HCT-15, 14.7 µM. In addition, the GI50 in the assay with SF-295 was 29 µM (inactive); in the assay with RPMI-8226 it was 7.16 µM (inactive); in the assay on HCT-116 it was 9.12 µM (inactive); in the assay with A498, 49.3 µM (inactive); in the assay with IGROV-1, 21.1 µM (inactive); in the assay with CCRF-CEM it was 7.6 µM (inactive). The GI50 was 21.6 µM (inactive) in the assay with COLO 205; 12.6 µM (inactive) in the assay with OVCAR-3; 20 µM (inactive) in the assay with SF-268; 11 µM (inactive) in the assay on HL-60; 32.6 µM (inactive) in the assay on TK-10.

Consider `CC(=O)CCCCO`, for which the GI50 in the assay with HOP-92 was > 100 µM (inactive); in the assay on ACHN, > 100 µM (inactive); in the assay with KM12, > 100 µM (inactive); with SK-MEL-5, > 100 µM (inactive); in the assay on NCI-H460 it was > 100 µM (inactive); in the assay with HCT-15 it was more than 100 µM. The GI50 with SF-295, in the assay on RPMI-8226, in the assay with HCT-116, in the assay on A498, with IGROV-1 and with CCRF-CEM was > 100 µM (inactive) throughout. For the same compound, the GI50 in the assay with COLO 205, in the assay with OVCAR-3, with SF-268, in the assay on HL-60 and in the assay on TK-10 was > 100 µM (inactive) each time.

For the compound `S=C(Nc1ccccc1)c1ccc(CN2CCCCC2)s1`, the GI50 in the assay on ACHN was 45 µM (inactive); in the assay on KM12 it was 17.8 µM (inactive); with SK-MEL-5, 16.3 µM (inactive); in the assay with NCI-H460, 21.6 µM (inactive); in the assay on HCT-15, 18.3 µM; in the assay on SF-295 it was 18.5 µM (inactive). Also, the GI50 in the assay with RPMI-8226 was 21.7 µM (inactive); with HCT-116, 17.5 µM (inactive); in the assay on A498, 18.4 µM (inactive); in the assay on PC-3, 29.7 µM (inactive); in the assay with IGROV-1, 24 µM (inactive); in the assay with CCRF-CEM, 16.4 µM (inactive). The GI50 is 18.1 µM (inactive) in the assay with MDA-MB-435; 18.7 µM (inactive) in the assay on COLO 205; 48.6 µM (inactive) in the assay with OVCAR-3; 26.4 µM (inactive) with SF-268; 14.9 µM (inactive) in the assay with HL-60.

As to `CCc1cccc(C(C)C)c1NC(=O)C(=O)C(CC(=O)Nc1ccc(Cl)c(Cl)c1)C(=O)OC` (stereo unspecified), the GI50 in the assay with HOP-92 is 51.3 µM (inactive); with ACHN, 78 µM (inactive); in the assay on KM12 it was 43.7 µM (inactive); in the assay with SK-MEL-5 it was 55.8 µM (inactive); with NCI-H460, 85.7 µM (inactive); in the assay with HCT-15, 14.8 µM. Also, the GI50 in the assay with SF-295 was > 100 µM (inactive); with RPMI-8226, 44 µM (inactive); with HCT-116 it was 34.3 µM (inactive); in the assay on A498, > 100 µM (inactive); in the assay with IGROV-1 it was > 100 µM (inactive); with CCRF-CEM, > 100 µM (inactive). Moreover, the GI50 in the assay with COLO 205 was 77.3 µM (inactive); in the assay on OVCAR-3 it was > 100 µM (inactive); in the assay on SF-268, > 100 µM (inactive); with HL-60, > 100 µM (inactive); in the assay on TK-10 it was > 100 µM (inactive).

In the case of `COc1ccc(/C=c2\sc3nnc(CCC(=O)Nc4cccc(C(F)(F)F)c4)n3c2=O)cc1`, the GI50 with HOP-92 is > 100 µM (inactive); in the assay with ACHN it was > 100 µM (inactive); in the assay with KM12, > 75.9 µM (inactive); in the assay with SK-MEL-5, > 100 µM (inactive); in the assay with NCI-H460, > 100 µM (inactive); in the assay with HCT-15 it was more than 100 µM. The GI50 in the assay with SF-295 was > 100 µM (inactive); with RPMI-8226, 38.4 µM (inactive); in the assay with HCT-116 it was > 100 µM (inactive); in the assay with A498 it was > 100 µM (inactive); in the assay with IGROV-1, > 100 µM (inactive); with CCRF-CEM it was 37.2 µM (inactive). The GI50 with COLO 205 was > 100 µM (inactive); in the assay with OVCAR-3 it was 39.8 µM (inactive); with SF-268 it was 97.5 µM (inactive); in the assay with HL-60 it was > 47.9 µM (inactive); in the assay on TK-10 it was > 100 µM (inactive).

In the case of `C[C@]12Cc3cn[nH]c3C(=O)C1CC[C@@H]1C2CC[C@@]2(C)C1CC[C@]2(C)O` (stereo partly specified), the GI50 in the assay on HOP-92 is > 100 µM (inactive); with ACHN it was > 100 µM (inactive); in the assay with KM12, > 100 µM (inactive); in the assay with SK-MEL-5, > 100 µM (inactive); with NCI-H460, > 100 µM (inactive); in the assay with HCT-15 it was more than 100 µM. The GI50 in the assay on SF-295, with RPMI-8226, in the assay on HCT-116, with A498, with IGROV-1 and with CCRF-CEM was > 100 µM (inactive) each time. In addition, the GI50 in the assay with COLO 205, in the assay with OVCAR-3, with SF-268, in the assay on HL-60 and in the assay on TK-10 was > 100 µM (inactive) each time.

As for `CC[C@@H](C(=O)[C@@H](C)[C@@H](O)[C@H](C)CCc1ccc(C)c(O)c1C(=O)O)[C@H]1O[C@](CC)([C@H]2CC[C@](O)(CC)[C@H](C)O2)C[C@@H]1C` [LASALOCID A SODIUM], the GI50 is 1.69 µM (inactive) in the assay with HOP-92; 2.64 µM (inactive) in the assay on ACHN; 1.84 µM (inactive) with KM12; 1.66 µM (inactive) in the assay on SK-MEL-5; 2.04 µM (inactive) with NCI-H460; 3.19 µM with HCT-15. The GI50 with SF-295 was 1.56 µM (inactive); with RPMI-8226, 1.2 µM (inactive); in the assay with HCT-116, 1.48 µM (inactive); in the assay on A498, 0.573 µM (active); with IGROV-1, 2.88 µM (inactive); in the assay with CCRF-CEM it was 0.695 µM (active). Further, the GI50 in the assay on COLO 205 was 1.1 µM (active); in the assay with OVCAR-3, 0.637 µM (active); with SF-268, 2.21 µM (inactive); in the assay with HL-60, 0.348 µM (active); in the assay on TK-10, 2.79 µM (inactive).
